Assay results from the kinase profiling compilation of Christmann-Franck et al. (2016).
Several values for one entry are separate records, joined by “and”; a condition that tells them apart may be missing. Equal entries are not always repeated.

How the values were obtained:
Test in all cases: radiometric filter-binding kinase assay
IKBKE (human) = IKBKE (human) (UniProt Q14164); conditions: compound 100.0 µM; ATP 50 µM
DYRK1A (human) = DYRK1A (human) (UniProt Q13627); conditions: compound 100.0 µM; ATP 50 µM
NTRK1 (human) = NTRK1 (human) (UniProt P04629); conditions: compound 100.0 µM; ATP 20 µM
MARK3 (human) = MARK3 (human) (UniProt P27448); conditions: compound 100.0 µM; ATP 5 µM
PKN2 (human) = PKN2 (human) (UniProt Q16513); conditions: compound 100.0 µM; ATP 5 µM
FGFR1 (human) = FGFR1 (human) (UniProt P11362); conditions: compound 100.0 µM; ATP 20 µM
MAP2K6 (human) = MAP2K6 (human) (UniProt P52564); conditions: compound 100.0 µM; ATP 50 µM
MAPK3 (human) = MAPK3 (human) (UniProt P27361); conditions: compound 100.0 µM; ATP 5 µM
HIPK2 (human) = HIPK2 (human) (UniProt Q9H2X6); conditions: compound 100.0 µM; ATP 5 µM
SYK (human) = SYK (human) (UniProt P43405); conditions: compound 100.0 µM; ATP 20 µM
BRSK1 (human) = BRSK1 (human) (UniProt Q8TDC3); conditions: compound 100.0 µM; ATP 20 µM
RPS6KA5 KD1 KD2 (human) = RPS6KA5 KD1 KD2 (human) (UniProt O75582); conditions: compound 100.0 µM; ATP 20 µM
PRKCZ (human) = PRKCZ (human) (UniProt Q05513); conditions: compound 100.0 µM; ATP 5 µM
RPS6KA3 KD1 KD2 (human) = RPS6KA3 KD1 KD2 (human) (UniProt P51812); conditions: compound 100.0 µM; ATP 50 µM
MAPK9 (human) = MAPK9 (human) (UniProt P45984); conditions: compound 100.0 µM; ATP 20 µM
PRKACA (human) = PRKACA (human) (UniProt P17612); conditions: compound 100.0 µM; ATP 20 µM
MAPK10 (human) = MAPK10 (human) (UniProt P53779); conditions: compound 100.0 µM; ATP 20 µM
MAP3K1 (human) = MAP3K1 (human) (UniProt Q13233); conditions: compound 100.0 µM; ATP 50 µM
ZAP70 (human) = ZAP70 (human) (UniProt P43403); conditions: compound 100.0 µM; ATP 5 µM
MAP3K5 (human) = MAP3K5 (human) (UniProt Q99683); conditions: compound 100.0 µM; ATP 50 µM
TAOK1 (human) = TAOK1 (human) (UniProt Q7L7X3); conditions: compound 100.0 µM; ATP 20 µM
MAP3K9 (human) = MAP3K9 (human) (UniProt P80192); conditions: compound 100.0 µM; ATP 20 µM
INSRR (human) = INSRR (human) (UniProt P14616); conditions: compound 100.0 µM; ATP 5 µM
MARK2 (human) = MARK2 (human) (UniProt Q7KZI7); conditions: compound 100.0 µM; ATP 20 µM
LCK (mouse) = conditions: compound 100.0 µM; ATP 50 µM; accession and sequence are those of the human protein
EPHA2 (human) = EPHA2 (human) (UniProt P29317); conditions: compound 100.0 µM; ATP 50 µM
EPHB1 (human) = EPHB1 (human) (UniProt P54762); conditions: compound 100.0 µM; ATP 20 µM
NUAK1 (human) = NUAK1 (human) (UniProt O60285); conditions: compound 100.0 µM; ATP 20 µM
DAPK1 (human) = DAPK1 (human) (UniProt P53355); conditions: compound 100.0 µM; ATP 5 µM
MAPK1 (human) = MAPK1 (human) (UniProt P28482); conditions: compound 100.0 µM; ATP 20 µM
HIPK3 (human) = HIPK3 (human) (UniProt Q9H422); conditions: compound 100.0 µM; ATP 20 µM
BTK (human) = BTK (human) (UniProt Q06187); conditions: compound 100.0 µM; ATP 50 µM
INSR (human) = INSR (human) (UniProt P06213); conditions: compound 100.0 µM; ATP 20 µM
MAPK15 (human) = MAPK15 (human) (UniProt Q8TD08); conditions: compound 100.0 µM; ATP 5 µM
EPHB2 (human) = EPHB2 (human) (UniProt P29323); conditions: compound 100.0 µM; ATP 20 µM

Sequence of NUAK1 (human) (O60285 whole entry, looked up): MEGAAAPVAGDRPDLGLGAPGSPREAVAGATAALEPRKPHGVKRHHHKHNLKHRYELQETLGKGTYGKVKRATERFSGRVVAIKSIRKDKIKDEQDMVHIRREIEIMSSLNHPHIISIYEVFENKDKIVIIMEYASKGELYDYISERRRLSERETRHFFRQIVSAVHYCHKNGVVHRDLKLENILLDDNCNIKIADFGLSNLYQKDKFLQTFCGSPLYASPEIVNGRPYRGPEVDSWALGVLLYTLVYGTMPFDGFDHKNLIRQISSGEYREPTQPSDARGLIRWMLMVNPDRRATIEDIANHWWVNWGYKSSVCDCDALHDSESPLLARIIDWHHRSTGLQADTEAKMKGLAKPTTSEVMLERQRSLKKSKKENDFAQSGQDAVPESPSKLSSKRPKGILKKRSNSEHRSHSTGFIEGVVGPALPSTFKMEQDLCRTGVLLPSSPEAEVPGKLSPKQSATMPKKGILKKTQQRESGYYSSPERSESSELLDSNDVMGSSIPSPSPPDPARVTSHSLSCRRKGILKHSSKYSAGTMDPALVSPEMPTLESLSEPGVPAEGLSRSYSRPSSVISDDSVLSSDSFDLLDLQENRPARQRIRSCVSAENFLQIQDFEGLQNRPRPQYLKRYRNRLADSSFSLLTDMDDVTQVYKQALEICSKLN
Sequence of MAP3K9 (human) (P80192 whole entry, looked up): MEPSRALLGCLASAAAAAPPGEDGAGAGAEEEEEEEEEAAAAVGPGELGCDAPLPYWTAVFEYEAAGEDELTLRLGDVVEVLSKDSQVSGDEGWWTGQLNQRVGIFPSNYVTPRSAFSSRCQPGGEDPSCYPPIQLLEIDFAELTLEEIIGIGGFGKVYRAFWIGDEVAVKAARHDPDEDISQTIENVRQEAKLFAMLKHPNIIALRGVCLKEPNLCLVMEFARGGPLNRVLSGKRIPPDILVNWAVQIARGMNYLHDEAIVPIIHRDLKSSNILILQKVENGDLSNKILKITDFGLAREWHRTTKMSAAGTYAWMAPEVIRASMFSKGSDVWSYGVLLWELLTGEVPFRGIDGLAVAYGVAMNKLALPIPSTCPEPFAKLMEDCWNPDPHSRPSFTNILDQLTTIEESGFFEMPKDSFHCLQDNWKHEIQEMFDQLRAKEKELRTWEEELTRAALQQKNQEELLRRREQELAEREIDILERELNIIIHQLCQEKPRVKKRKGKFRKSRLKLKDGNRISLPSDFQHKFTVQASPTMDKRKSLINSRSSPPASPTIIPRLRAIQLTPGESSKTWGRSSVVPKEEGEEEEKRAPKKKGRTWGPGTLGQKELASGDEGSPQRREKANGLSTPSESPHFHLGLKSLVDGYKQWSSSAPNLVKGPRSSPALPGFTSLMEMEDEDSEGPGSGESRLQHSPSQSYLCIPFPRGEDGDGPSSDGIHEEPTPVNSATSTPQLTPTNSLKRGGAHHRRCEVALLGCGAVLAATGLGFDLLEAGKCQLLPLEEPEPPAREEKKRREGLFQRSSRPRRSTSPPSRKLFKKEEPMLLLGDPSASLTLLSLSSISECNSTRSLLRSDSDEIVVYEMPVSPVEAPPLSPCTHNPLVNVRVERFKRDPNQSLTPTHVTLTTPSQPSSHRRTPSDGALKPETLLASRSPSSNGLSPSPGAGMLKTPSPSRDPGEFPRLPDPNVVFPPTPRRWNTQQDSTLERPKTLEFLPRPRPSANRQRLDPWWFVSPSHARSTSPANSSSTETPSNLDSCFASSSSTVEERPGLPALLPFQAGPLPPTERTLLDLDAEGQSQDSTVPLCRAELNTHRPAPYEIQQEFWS
Sequence of BTK (human) (Q06187 whole entry, looked up): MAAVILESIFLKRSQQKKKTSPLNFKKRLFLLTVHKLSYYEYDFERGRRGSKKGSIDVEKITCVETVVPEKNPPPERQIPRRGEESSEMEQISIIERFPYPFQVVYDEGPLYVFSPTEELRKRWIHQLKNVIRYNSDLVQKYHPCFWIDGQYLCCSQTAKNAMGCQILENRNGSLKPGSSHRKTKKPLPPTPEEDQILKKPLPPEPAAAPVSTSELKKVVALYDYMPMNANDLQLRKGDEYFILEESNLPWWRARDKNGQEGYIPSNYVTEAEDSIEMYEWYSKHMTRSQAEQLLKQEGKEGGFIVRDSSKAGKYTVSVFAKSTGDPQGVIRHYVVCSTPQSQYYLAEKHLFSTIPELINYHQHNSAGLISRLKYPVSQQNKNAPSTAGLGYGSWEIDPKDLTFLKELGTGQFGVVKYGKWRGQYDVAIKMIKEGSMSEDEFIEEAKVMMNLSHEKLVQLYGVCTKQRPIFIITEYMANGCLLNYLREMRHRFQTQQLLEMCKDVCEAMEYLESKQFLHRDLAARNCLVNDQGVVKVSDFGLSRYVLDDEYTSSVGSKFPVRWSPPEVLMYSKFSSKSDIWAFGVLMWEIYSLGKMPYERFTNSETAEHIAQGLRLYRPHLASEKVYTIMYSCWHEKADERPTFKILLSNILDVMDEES
Sequence of EPHB1 (human) (P54762 whole entry, looked up): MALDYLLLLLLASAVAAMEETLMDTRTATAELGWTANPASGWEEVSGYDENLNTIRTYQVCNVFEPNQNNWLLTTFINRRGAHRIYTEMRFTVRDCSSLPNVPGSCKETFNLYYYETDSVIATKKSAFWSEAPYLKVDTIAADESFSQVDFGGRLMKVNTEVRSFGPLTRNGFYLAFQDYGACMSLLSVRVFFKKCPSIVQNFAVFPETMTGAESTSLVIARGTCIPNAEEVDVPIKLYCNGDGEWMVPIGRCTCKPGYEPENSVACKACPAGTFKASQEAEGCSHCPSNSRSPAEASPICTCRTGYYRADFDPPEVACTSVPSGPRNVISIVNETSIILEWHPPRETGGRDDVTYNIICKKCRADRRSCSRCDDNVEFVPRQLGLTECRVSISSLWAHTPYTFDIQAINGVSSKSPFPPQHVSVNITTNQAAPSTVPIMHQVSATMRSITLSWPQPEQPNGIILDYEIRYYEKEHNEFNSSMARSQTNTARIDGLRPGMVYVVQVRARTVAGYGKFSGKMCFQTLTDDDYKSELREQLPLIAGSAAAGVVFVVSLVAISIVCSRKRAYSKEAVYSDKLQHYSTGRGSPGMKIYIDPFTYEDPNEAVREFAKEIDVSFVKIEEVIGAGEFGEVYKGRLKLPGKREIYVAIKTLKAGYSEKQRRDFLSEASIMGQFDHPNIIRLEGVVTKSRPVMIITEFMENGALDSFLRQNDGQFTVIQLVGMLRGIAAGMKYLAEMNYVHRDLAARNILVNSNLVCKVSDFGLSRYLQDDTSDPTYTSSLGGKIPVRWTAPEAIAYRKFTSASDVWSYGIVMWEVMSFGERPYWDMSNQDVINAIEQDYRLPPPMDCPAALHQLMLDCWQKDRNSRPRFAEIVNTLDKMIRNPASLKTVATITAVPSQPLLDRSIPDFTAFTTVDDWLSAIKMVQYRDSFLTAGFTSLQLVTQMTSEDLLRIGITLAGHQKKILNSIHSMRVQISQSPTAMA
Sequence of MAP2K6 (human) (P52564 whole entry, looked up): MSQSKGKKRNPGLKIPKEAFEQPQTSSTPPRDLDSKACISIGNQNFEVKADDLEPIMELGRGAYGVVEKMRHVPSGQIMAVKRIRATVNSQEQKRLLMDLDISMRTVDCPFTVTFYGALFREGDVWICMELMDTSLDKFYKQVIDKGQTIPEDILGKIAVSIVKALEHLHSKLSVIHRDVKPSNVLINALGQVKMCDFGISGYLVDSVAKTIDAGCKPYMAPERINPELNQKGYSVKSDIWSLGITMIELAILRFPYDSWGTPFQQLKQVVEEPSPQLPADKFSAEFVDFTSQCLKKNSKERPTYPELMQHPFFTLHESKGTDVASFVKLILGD
Sequence of IKBKE (human) (Q14164 whole entry, looked up): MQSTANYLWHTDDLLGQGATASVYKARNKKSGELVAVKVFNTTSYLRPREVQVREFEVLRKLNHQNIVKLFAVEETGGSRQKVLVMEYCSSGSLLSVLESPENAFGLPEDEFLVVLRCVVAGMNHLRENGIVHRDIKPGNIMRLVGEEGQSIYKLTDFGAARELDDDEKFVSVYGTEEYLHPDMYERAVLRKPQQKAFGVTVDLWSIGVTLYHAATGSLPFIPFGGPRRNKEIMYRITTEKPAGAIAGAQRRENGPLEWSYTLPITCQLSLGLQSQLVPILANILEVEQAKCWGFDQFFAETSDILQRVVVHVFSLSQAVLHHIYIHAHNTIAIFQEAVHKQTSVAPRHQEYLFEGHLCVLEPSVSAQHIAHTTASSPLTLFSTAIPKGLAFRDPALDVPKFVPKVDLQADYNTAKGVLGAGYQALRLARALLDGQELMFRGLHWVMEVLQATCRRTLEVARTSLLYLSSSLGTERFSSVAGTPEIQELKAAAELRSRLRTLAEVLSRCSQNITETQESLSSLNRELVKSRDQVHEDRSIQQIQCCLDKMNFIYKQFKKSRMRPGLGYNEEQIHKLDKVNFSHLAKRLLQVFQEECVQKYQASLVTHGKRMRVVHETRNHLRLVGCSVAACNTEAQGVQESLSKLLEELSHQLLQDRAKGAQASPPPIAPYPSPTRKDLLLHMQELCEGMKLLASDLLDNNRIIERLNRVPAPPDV
Sequence of MAPK3 (human) (P27361 whole entry, looked up): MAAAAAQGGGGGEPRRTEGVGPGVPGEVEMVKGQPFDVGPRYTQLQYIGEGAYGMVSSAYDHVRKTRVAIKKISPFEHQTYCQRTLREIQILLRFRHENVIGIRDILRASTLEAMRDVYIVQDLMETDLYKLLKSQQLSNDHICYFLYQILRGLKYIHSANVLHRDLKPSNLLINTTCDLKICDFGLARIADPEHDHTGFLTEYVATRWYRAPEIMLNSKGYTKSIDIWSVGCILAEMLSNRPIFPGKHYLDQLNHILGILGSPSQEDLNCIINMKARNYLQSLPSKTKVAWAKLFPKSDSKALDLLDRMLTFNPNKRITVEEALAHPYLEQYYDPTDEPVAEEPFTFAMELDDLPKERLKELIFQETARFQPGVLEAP

SMILES	inhibition (IKBKE (human)) [%]	inhibition (DYRK1A (human)) [%]	inhibition (NTRK1 (human)) [%]	inhibition (MARK3 (human)) [%]	inhibition (PKN2 (human)) [%]	inhibition (FGFR1 (human)) [%]	inhibition (MAP2K6 (human)) [%]	inhibition (MAPK3 (human)) [%]	inhibition (HIPK2 (human)) [%]	inhibition (SYK (human)) [%]	inhibition (BRSK1 (human)) [%]	inhibition (RPS6KA5 KD1 KD2 (human)) [%]	inhibition (PRKCZ (human)) [%]	inhibition (RPS6KA3 KD1 KD2 (human)) [%]	inhibition (MAPK9 (human)) [%]	inhibition (PRKACA (human))	inhibition (MAPK10 (human)) [%]	inhibition (MAP3K1 (human)) [%]	inhibition (ZAP70 (human)) [%]	inhibition (MAP3K5 (human)) [%]	further results
O=C(c1cccc(-c2cc3c(=O)[nH]cnc3s2)c1)N1CCOCC1	36	52	41	29	0	57	2	19	38	0	38	24	0	39	0	17% and 42%	7	0	0	54	inhibition (TAOK1 (human)): 3%; inhibition (MAP3K9 (human)): 0%; inhibition (INSRR (human)): 0%; inhibition (MARK2 (human)): 0%; inhibition (LCK (mouse)): 40%; inhibition (EPHA2 (human)): 37%; inhibition (EPHB1 (human)): 0%; inhibition (NUAK1 (human)): 0%; inhibition (DAPK1 (human)): 0%; inhibition (MAPK1 (human)): 1%; inhibition (HIPK3 (human)): 0%; inhibition (BTK (human)): 46%; inhibition (INSR (human)): 0%; inhibition (MAPK15 (human)): 72%; inhibition (EPHB2 (human)): 27%
Nc1cnc2c(-c3c(F)cccc3F)cccn2c1=O	13	55	88	86	73	88	10	23	18	30	22	33	0	52	17	8% and 12%	33	21	1	86	inhibition (TAOK1 (human)): 82%; inhibition (MAP3K9 (human)): 79%; inhibition (INSRR (human)): 51%; inhibition (MARK2 (human)): 53%; inhibition (LCK (mouse)): 39%; inhibition (EPHA2 (human)): 33%; inhibition (EPHB1 (human)): 0%; inhibition (NUAK1 (human)): 76%; inhibition (DAPK1 (human)): 0%; inhibition (MAPK1 (human)): 13%; inhibition (HIPK3 (human)): 23%; inhibition (BTK (human)): 67%; inhibition (INSR (human)): 88%; inhibition (MAPK15 (human)): 36%; inhibition (EPHB2 (human)): 29%
CC1CN(c2nc3ccccn3c(=O)c2N)CC(C)O1 (stereo not given)	0	36	37	25	0	34	1	0	0	13	12	0	0	84	6	0% and 15%	9	0	38	4	inhibition (TAOK1 (human)): 0%; inhibition (MAP3K9 (human)): 0%; inhibition (INSRR (human)): 1%; inhibition (MARK2 (human)): 13%; inhibition (LCK (mouse)): 2%; inhibition (EPHA2 (human)): 0%; inhibition (EPHB1 (human)): 0%; inhibition (NUAK1 (human)): 3%; inhibition (DAPK1 (human)): 0%; inhibition (MAPK1 (human)): 12%; inhibition (HIPK3 (human)): 0%; inhibition (BTK (human)): 1%; inhibition (INSR (human)): 1%; inhibition (MAPK15 (human)): 0%; inhibition (EPHB2 (human)): 20%
O=C(Nc1cnc2[nH]cnn2c1=O)c1ccccc1	0	0	0	5	0	0	3	13	0	0	2	52	0	11	3	0%	0	6	0	9	inhibition (TAOK1 (human)): 0%; inhibition (MAP3K9 (human)): 0%; inhibition (INSRR (human)): 0%; inhibition (MARK2 (human)): 0%; inhibition (LCK (mouse)): 18%; inhibition (EPHA2 (human)): 0%; inhibition (EPHB1 (human)): 1%; inhibition (NUAK1 (human)): 0%; inhibition (DAPK1 (human)): 0%; inhibition (MAPK1 (human)): 4%; inhibition (HIPK3 (human)): 0%; inhibition (BTK (human)): 17%; inhibition (INSR (human)): 0%; inhibition (MAPK15 (human)): 4%; inhibition (EPHB2 (human)): 6%
